Measurements from ChEMBL document CHEMBL5506003, “Design and biological evaluation of dual tubulin/HDAC inhibitors based on millepachine for treatment of prostate cancer” (Eur J Med Chem, 2024).
pIC50: −log10 of the molar value.

Legend:
MCF7 = assay: Cytotoxicity against human MCF7 cells incubated for 72 hrs by MTT assay; settings: MCF7, 72 h
MDA-MB-231 = assay: Cytotoxicity against human MDA-MB-231 cells incubated for 72 hrs by MTT assay; assay type: functional, cell-based; settings: MDA-MB-231, 72 h
U-251 = assay: Cytotoxicity against human U-251 cells incubated for 72 hrs by MTT assay; settings: U-251, 72 h
PC-3 [1] = assay: Cytotoxicity against human PC-3 cells incubated for 72 hrs by MTT assay; settings: PC-3, 72 h
Histone deacetylase 7 = molecular target: T1, Histone deacetylase 7 (Homo sapiens, UniProt Q8WUI4); assay: Inhibition of HDAC7 in human HeLa nuclear extracts incubated for 30 mins by fluorescence based assay; assay type: cell-free
T1 sequence (Q8WUI4 whole entry): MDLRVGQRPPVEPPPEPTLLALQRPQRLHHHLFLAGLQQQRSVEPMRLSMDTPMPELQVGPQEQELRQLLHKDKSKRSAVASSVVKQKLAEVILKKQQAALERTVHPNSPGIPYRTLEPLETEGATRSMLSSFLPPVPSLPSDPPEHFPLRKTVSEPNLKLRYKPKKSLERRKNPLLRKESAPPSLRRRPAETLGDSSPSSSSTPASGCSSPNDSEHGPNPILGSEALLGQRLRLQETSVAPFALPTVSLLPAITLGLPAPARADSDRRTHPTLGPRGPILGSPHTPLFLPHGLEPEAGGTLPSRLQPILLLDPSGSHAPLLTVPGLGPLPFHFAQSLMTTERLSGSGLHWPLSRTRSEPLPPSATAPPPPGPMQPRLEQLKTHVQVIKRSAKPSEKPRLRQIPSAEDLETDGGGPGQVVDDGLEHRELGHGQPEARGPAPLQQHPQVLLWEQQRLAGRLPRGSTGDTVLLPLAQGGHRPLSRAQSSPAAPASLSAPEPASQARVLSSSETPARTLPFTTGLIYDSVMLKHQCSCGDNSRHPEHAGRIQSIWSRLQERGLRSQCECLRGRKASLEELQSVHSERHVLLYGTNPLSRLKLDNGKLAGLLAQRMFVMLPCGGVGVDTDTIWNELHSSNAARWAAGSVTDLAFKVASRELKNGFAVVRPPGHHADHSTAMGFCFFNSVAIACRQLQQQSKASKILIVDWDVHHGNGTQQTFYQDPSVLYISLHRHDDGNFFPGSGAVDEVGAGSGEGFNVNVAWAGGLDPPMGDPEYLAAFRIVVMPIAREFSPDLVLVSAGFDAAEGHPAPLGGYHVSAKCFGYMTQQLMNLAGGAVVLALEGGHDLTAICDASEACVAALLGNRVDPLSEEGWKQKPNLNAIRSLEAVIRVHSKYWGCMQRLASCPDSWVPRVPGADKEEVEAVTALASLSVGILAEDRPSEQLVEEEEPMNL

Histone deacetylase 1 = Histone deacetylase 1 (Homo sapiens, UniProt Q13547); assay: Inhibition of HDAC1 in human HeLa nuclear extracts incubated for 30 mins by fluorescence based assay; assay type: cell-free
Histone deacetylase 2 = Histone deacetylase 2 (Homo sapiens, UniProt Q92769); assay: Inhibition of HDAC2 in human HeLa nuclear extracts incubated for 30 mins by fluorescence based assay; assay type: cell-based
A549 = assay: Cytotoxicity against human A549 cells incubated for 72 hrs by MTT assay; settings: A549, 72 h
[2] = molecular target: T2, Protein deacetylase HDAC6 (Homo sapiens, UniProt Q9UBN7); assay: Inhibition of HDAC6 in human HeLa nuclear extracts incubated for 30 mins by fluorescence based assay; assay type: cell-free
T2 sequence (Q9UBN7 whole entry): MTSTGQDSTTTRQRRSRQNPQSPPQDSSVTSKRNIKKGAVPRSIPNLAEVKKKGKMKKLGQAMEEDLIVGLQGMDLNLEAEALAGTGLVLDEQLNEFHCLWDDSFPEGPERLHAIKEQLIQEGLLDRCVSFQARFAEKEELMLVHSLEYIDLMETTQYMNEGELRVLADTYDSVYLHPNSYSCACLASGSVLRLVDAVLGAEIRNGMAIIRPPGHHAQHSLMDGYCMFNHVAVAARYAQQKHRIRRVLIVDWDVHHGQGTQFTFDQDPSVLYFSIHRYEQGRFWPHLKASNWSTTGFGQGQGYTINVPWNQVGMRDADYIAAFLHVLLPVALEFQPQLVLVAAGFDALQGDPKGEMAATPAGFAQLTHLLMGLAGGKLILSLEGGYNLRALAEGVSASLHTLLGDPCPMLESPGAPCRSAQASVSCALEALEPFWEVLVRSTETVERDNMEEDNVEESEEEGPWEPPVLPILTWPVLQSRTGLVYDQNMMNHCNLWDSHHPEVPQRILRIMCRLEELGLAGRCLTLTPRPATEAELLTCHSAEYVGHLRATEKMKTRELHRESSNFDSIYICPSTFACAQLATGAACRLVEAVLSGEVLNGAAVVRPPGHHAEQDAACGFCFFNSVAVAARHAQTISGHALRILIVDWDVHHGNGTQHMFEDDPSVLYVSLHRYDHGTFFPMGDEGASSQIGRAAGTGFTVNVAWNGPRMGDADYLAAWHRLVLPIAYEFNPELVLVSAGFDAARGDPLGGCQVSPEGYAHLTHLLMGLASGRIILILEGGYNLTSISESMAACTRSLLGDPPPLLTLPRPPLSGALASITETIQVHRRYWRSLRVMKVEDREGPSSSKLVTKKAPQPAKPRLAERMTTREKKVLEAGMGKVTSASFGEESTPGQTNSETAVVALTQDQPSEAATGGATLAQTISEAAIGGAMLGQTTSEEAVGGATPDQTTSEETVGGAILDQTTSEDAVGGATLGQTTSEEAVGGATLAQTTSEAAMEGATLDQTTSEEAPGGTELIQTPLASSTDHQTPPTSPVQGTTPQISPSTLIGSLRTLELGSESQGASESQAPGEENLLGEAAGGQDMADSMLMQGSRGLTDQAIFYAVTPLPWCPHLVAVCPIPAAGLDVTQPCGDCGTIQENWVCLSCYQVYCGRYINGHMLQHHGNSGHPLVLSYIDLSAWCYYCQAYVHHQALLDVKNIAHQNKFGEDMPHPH

[3] = Toxicity in BALB/c nude mouse xenografted with human PC-3 cells assessed as body weight loss at 5 mg/kg, iv administered every 2 days and measured after 3 weeks; assay type: organism-based; settings: in vivo, 504 h
PC-3 [4] = assay: Antitumor activity against human PC-3 cells xenografted in BALB/c nude mouse assessed as tumor growth inhibition at 5 mg/kg, iv administered every 2 days and measured after 3 weeks; assay type: functional; settings: PC-3, 504 h, read-out: TGI
[5] = Toxicity in BALB/c nude mouse xenografted with human PC-3 cells assessed as mortality at 5 mg/kg, iv administered every 2 days and measured after 3 weeks; assay type: organism-based; settings: in vivo, 504 h

Chain of Histone deacetylase 1 (Q13547 whole entry): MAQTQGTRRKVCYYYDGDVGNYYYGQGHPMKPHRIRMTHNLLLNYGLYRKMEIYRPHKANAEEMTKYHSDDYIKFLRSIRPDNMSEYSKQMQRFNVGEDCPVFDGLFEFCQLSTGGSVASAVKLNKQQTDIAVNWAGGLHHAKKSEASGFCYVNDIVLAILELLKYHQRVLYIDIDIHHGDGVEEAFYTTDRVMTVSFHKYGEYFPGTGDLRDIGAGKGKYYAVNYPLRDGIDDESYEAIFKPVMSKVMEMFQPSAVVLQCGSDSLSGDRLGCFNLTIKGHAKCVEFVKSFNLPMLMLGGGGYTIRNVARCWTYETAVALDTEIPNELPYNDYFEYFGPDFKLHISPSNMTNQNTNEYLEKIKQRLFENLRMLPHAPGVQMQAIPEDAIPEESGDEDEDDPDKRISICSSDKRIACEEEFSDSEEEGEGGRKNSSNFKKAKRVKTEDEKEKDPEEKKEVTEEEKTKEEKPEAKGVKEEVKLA
Chain of Histone deacetylase 2 (Q92769 whole entry): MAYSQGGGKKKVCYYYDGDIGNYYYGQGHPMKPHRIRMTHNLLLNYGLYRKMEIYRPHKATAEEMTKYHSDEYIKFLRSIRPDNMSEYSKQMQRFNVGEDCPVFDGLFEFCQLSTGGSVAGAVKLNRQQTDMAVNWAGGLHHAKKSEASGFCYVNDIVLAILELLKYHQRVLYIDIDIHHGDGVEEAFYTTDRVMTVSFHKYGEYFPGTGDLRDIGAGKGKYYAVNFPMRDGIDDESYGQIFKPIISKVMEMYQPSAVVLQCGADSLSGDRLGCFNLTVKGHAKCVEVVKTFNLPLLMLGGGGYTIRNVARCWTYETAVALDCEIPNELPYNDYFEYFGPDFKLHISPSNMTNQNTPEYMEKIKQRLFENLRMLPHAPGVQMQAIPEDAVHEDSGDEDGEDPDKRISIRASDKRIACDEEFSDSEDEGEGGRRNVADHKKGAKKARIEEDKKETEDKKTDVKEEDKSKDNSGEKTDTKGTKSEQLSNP

With `COc1ccc(/C=C/C(=O)c2ccc(Br)c3c2OC(C)(C)C=C3)cc1OCC(=O)NO` the pIC50 (MCF7) was 5.74, the pIC50 (MDA-MB-231) was 6.33 and the pIC50 (U-251) was 6.31. For the same compound, the pIC50 (PC-3 [1]) was 6.14, the pIC50 (Histone deacetylase 7) was 5.27 and the pIC50 (Histone deacetylase 1) was 6.24. The pIC50 (Histone deacetylase 2) was 6.08, the pIC50 (A549) was 5.88 and the pIC50 [2] was 5.92.
For `COc1ccc(/C=C/C(=O)c2ccc(OC)c3c2OC(C)(C)C=C3)cc1OCCCCCC(=O)NO`, the pIC50 (MCF7) was 5.19, the pIC50 (MDA-MB-231) was less than 5.00 and the pIC50 (U-251) was less than 5.00. It also gave a pIC50 (PC-3 [1]) of 5.24 and a pIC50 (A549) of 5.22.
For `COc1ccc(/C=C/C(=O)c2ccc(Br)c3c2OC(C)(C)C=C3)cc1OCC(=O)Nc1ccccc1N`, the pIC50 (MCF7) was 5.21, the pIC50 (MDA-MB-231) was 5.32 and the pIC50 (U-251) was 5.18. For the same compound, the pIC50 (PC-3 [1]) was 5.43 and the pIC50 (A549) was 5.09.
With `COc1ccc(/C=C/C(=O)c2ccc(OC)c3c2OC(C)(C)C=C3)cc1OCCCC(=O)NO` the pIC50 (MCF7) was 5.25, the pIC50 (MDA-MB-231) was 5.06 and the pIC50 (U-251) was 5.43. For the same compound, the pIC50 (PC-3 [1]) was 5.21 and the pIC50 (A549) was 5.26.
For `CC(=O)O[C@H]1C(=O)[C@@]2(C)[C@H]([C@H](OC(=O)c3ccccc3)[C@]3(O)C[C@H](OC(=O)[C@H](O)[C@@H](NC(=O)c4ccccc4)c4ccccc4)C(C)=C1C3(C)C)[C@]1(OC(C)=O)CO[C@@H]1C[C@@H]2O` [PACLITAXEL], the Activity [3] was “Toxic”, the inhibition in vivo at 5 mg/kg (PC-3 [4]) was 91.3% and the Activity [5] was “Toxic”.
With `COc1ccc(/C=C/C(=O)c2ccc(Cl)c3c2OC(C)(C)C=C3)cc1OCC(=O)NO` the pIC50 (MCF7) was 5.84, the pIC50 (MDA-MB-231) was 6.30 and the pIC50 (U-251) was 5.75. The pIC50 (PC-3 [1]) was 6.66 and the pIC50 (A549) was 5.59.
For `COc1ccc(/C=C/C(=O)c2ccc(OC)c3c2OC(C)(C)C=C3)cc1NCCCCCC(=O)Nc1ccccc1N`, the pIC50 (MCF7) was less than 5.00, the pIC50 (MDA-MB-231) was less than 5.00 and the pIC50 (U-251) was less than 5.00. The pIC50 (PC-3 [1]) was 5.29 and the pIC50 (A549) was less than 5.00.
`COc1ccc(/C=C/C(=O)c2ccc(Cl)c3c2OC(C)(C)C=C3)cc1NCC(=O)Nc1ccccc1N` showed a pIC50 (MCF7) of 5.32, a pIC50 (MDA-MB-231) of 5.52 and a pIC50 (U-251) of 5.33. For the same compound, the pIC50 (PC-3 [1]) was 5.58 and the pIC50 (A549) was less than 5.00.
Compound `COc1ccc(/C=C/C(=O)c2ccc(OC)c3c2OC(C)(C)C=C3)cc1OCCCCCCC(=O)Nc1ccccc1N` has a pIC50 (MCF7) of less than 5.00, a pIC50 (MDA-MB-231) of 5.41 and a pIC50 (U-251) of less than 5.00. For the same compound, the pIC50 (PC-3 [1]) was less than 5.00 and the pIC50 (A549) was less than 5.00.
For `COc1ccc(/C=C/C(=O)c2ccc(OC)c3c2OC(C)(C)C=C3)cc1` [MILLEPACHINE], the pIC50 (MCF7) was 5.36, the pIC50 (MDA-MB-231) was 5.61 and the pIC50 (U-251) was 5.43. The pIC50 (PC-3 [1]) was 5.95 and the pIC50 (A549) was less than 5.00.
For `COc1ccc(/C=C/C(=O)c2ccc(OC)c3c2OC(C)(C)C=C3)cc1OCC(=O)NO`, the pIC50 (MCF7) was 6.23, the pIC50 (MDA-MB-231) was 5.77 and the pIC50 (U-251) was 6.32. It also gave a pIC50 (PC-3 [1]) of 6.64 and a pIC50 (A549) of 5.53.
Compound `COc1ccc(/C=C/C(=O)c2ccc(OC)c3c2OC(C)(C)C=C3)cc1NCCCCCC(=O)NO` has a pIC50 (MCF7) of less than 5.00, a pIC50 (MDA-MB-231) of less than 5.00 and a pIC50 (U-251) of less than 5.00. For the same compound, the pIC50 (PC-3 [1]) was less than 5.00 and the pIC50 (A549) was less than 5.00.
For `COc1ccc(/C=C/C(=O)c2ccc(Br)c3c2OC(C)(C)C=C3)cc1NCC(=O)Nc1ccccc1N`, the pIC50 (MCF7) was 5.39, the pIC50 (MDA-MB-231) was 5.39 and the pIC50 (U-251) was 5.44. The pIC50 (PC-3 [1]) was 5.91 and the pIC50 (A549) was less than 5.00.
